Results on three compounds are retold here after the NIST ThermoML archive (doi:10.1016/j.fluid.2017.09.008).

Molecules are shown by their SMILES. Numbers after ± are expanded uncertainties.

A short description of this data set: excess molar enthalpy (molar enthalpy of mixing); xn = mol fraction of the nth substance listed. The settings on record: 298.15 K, 101 kPa, Liquid, DSC [Setaram C80].

As to `Cc1ccccc1O` [2-methylphenol] + CCO, the excess molar enthalpy is, setting by setting: (x1 = 0.1954) -0.266 ± 0.00932 kcal/mol; (x1 = 0.4127) -0.387 ± 0.00837 kcal/mol; (x1 = 0.6007) -0.395 ± 0.00884 kcal/mol; (x1 = 0.8013) -0.226 ± 0.0112 kcal/mol.

For `Cc1cccc(O)c1` [3-methylphenol] + CCO, the excess molar enthalpy is -0.189 ± 0.00574 kcal/mol (x1 = 0.2003), -0.293 ± 0.00406 kcal/mol (x1 = 0.4097), -0.274 ± 0.00478 kcal/mol (x1 = 0.5861) and -0.164 ± 0.00598 kcal/mol (x1 = 0.7875).

Consider `COc1ccccc1O` [2-methoxyphenol] + CCO, for which the excess molar enthalpy runs as follows: (x1 = 0.0168) -0.00716 ± 0.00526 kcal/mol; (x1 = 0.1988) -0.0907 ± 0.00406 kcal/mol; (x1 = 0.3994) -0.131 ± 0.00263 kcal/mol; (x1 = 0.608) -0.121 ± 0.00311 kcal/mol; (x1 = 0.7783) -0.0568 ± 0.00454 kcal/mol.
